For one test, the system named is Staphylococcus aureus. Nature of the test: Antibacterial activity against Staphylococcus aureus MTCC 3160 by agar dilution method. In kind it is functional.
The subject of test [1] is Staphylococcus epidermidis. In words: Antibacterial activity against Staphylococcus epidermidis MTCC 2639 by agar dilution method. In kind it is functional.
For another test, the system named is Bacillus subtilis. Nature of the test: Antibacterial activity against Bacillus subtilis MTCC 121 by agar dilution method. In kind it is functional. For orientation: In agar dilution, organisms are placed on agar that contains the substance at set levels.
The subject of another test is Salmonella typhi. In words: Antibacterial activity against Salmonella typhi MTCC 733 by agar dilution method. The settings on record: Salmonella enterica. In kind it is functional, Salmonella enterica subsp. enterica serovar Typhi.
The next test has as its system Escherichia coli. In words: Antibacterial activity against Escherichia coli MTCC 51 by agar dilution method. In kind it is functional.

Molecules are shown by their SMILES. In brackets after ≈: the same amount, converted by molar mass.

The MIC is the smallest concentration in the dilution series that meets the test's criterion for growth inhibition.

For the molecule `N[C@@H](C(=O)N[C@@H]1C(=O)N2C(C(=O)O)=C(Cl)CS[C@H]12)c1ccccc1` [CEFACLOR ANHYDROUS], the MIC against Staphylococcus aureus is 16 mg/L (≈ 43.5 µM); in test [1], 32 mg/L (≈ 87 µM); in the test on Bacillus subtilis it was 8 mg/L (≈ 21.8 µM); in the test on Salmonella typhi it was 8 mg/L (≈ 21.8 µM); with Escherichia coli it was 4 mg/L (≈ 10.9 µM).

As to `C/C(=N\n1c(S)nnc(C)c1=O)c1ccccn1`, the MIC was 16 mg/L (≈ 61.2 µM) with Staphylococcus aureus; 32 mg/L (≈ 122 µM) in test [1]; 8 mg/L (≈ 30.6 µM) in the test on Bacillus subtilis; 16 mg/L (≈ 61.2 µM) in the test with Salmonella typhi; 16 mg/L (≈ 61.2 µM) with Escherichia coli.

For the origin of these results see ChEMBL document CHEMBL1144598, “Synthesis and characterization of cobalt(II), nickel(II), copper(II) and zinc(II) complexes with Schiff base derived from 4-amino-3-mercapto-6-methyl-5-oxo-1,2,4-triazine” (2007).
